Source: patent US20160304970A1, “GENE BIOMARKER TO DIAGNOSE METASTIC LIVER CANCER AND METHODS FOR TARGETING THE SAME” (University of Southern California, priority 2015, published 2016)
“And” between values parts separate entries of the source, which are not always exact repeats. Equal entries are not always repeated.

How the values were obtained:
TICs [1] = assay: ATP production measurements; assay type: cell-based; settings: inhibitors for 4 hr
Method: Relative ATP/cell assays were performed in 96-well plates. After cells were treated with inhibitors for 4 hr, culture media was removed. Cell Titer-Glo (100 μl: Promega) and CyQUANT (Invitrogen) were immediately added to each well. Luminescence and fluorescence readings were consecutively measured after room-temperature incubation for 10 min.

TICs [2] = assay: Seahorse extracellular flux analysis (OCR, ECAR); assay type: cell-based; settings: for FCCP-induced OCR: Nanog silenced TICs, ETO 100 μM
Method: To measure cellular bioenergetics using extracellular flux, a Seahorse […] Extracellular Flux Analyzer was used following the published protocol (Ahfeldt et al., 2012; Ferrick et al., 2008). […] Cells were plated in gelatin-coated XF 24-well cell culture microplates at 2-7.5×10^4 cells/well (Seahorse Bioscience) and incubated in pre-warmed unbuffered DMEM medium (DMEM containing 2 mM GlutaMAX, 1 mM sodium pyruvate, 1.85 g l^−1 NaCl and 25 mM glucose) for 1 h. The oxygen consumption was measured by the XF24 extracellular flux analyzer (Seahorse Biosciences) in unbuffered DMEM assay medium supplemented with 1 mM pyruvate and 25 mM glucose after 45 to 60 min equilibration.
The characteristic function of mature hepatocytes is metabolism/thermogenesis, driven by the catabolic breakdown of lipids. To distinguish these tumor cells at a functional level, the oxygen consumption rate (OCR) and extracellular acidification rate (ECAR) were analyzed as previously described (Ahfeldt et al.). It was observed that the basal OCR and ECAR rates were highest in the Nanog-silenced TICs. Compounds were added that modulated mitochondrial function sequentially and measured the effect on OCR and ECAR after the addition of each compound. Oligomycin was first administered to determine ATP turnover and the degree of proton leakage. […] After the addition of the electron transport chain decoupler (FCCP), the maximal respiratory capacity was measured. […] Finally, antimycin was administered to inhibit the flux of electrons through complex III and prevent oxygen consumption by the cytochrome c oxidase in the mitochondria as previously described. For determination of individual ETC complex activities, mitochondrial biogenesis was profiled by adding perturbation drugs: 2 μM oligomycin, 0.5 μM FCCP and 5 μM antimycin A/rotenone, in succession. OCR for complexes II-IV was measured by first inhibiting complex I with rotenone; OCR for complexes III-IV was measured by first inhibiting complex II with […]; and OCR for complex IV was measured by first inhibiting complex III with antimycin. The Etomoxir (ETO, 100 μM)-sensitive component of oxygen consumption rate (OCR) represents FAO. Absolute values of OCR were expressed as pmol min^−1 per 10^6 cells and mpH min^−1 per 10^6 cells. OCR and ECAR were determined by plotting the oxygen tension and acidification of the medium in the chamber as a function of time and normalized to protein concentration (picomoles per minute per milligram), respectively. […]
The ECAR was measured over time at 10 min intervals. […] By uncoupling the proton gradient with FCCP, the maximum OCR rates were determined over the next two time intervals (II). By addition of glycolysis inhibitor (2-DG) or CPT1 inhibitor (ETO), the OCR rates were determined over the next two time intervals (III). […]

mouse TICs = assay: TIC xenograft in NOG mice, sorafenib resistance; assay type: in vivo; settings: mouse TICs subcutaneously in NOG mice
TICs [3] = assay: Cytochrome c release, immunoblot of cytosol and heavy membrane fractions; assay type: cell-based
TICs [4] = assay: ROS levels and spheroid formation of TICs; assay type: cell-based
Method: To evaluate the status of mitochondria in TICs, the MitoTracker® Mitochondrion-selective probes for total mitochondrial mass (MitoTracker® Deep Red FM Invitrogen: M22426) and for oxidized state mitochondria (MitoSOX™ Red mitochondrial superoxide indicator) were added to the media, respectively, and cells subjected to FACS analyses. ROS labeling was performed as per the instructions for CellROX® Oxidative stress reagent Probes (CellROX® green reagent, Invitrogen C10444). In brief, the cells were incubated with staining solution (100 nM) in culture media at 37° C. for 30 minutes. After staining was complete, cells were washed with PBS and analyzed by fluorescent microscopy or flow cytometry.

CD133 (+) Huh7 cells = assay: CD133 cell viability screening (luminescence, CellTiter-Glo); assay type: cell-based; settings: Homo sapiens, Huh-7
Method: (§1) CD133(+) and CD133(−) Huh7 cells were freshly sorted using the MACS CD133 micro bead kit (Miltenyi Biotec, 130-050-801) and were seeded in 100 μl medium containing 5000 cells per well in a 96-well plate. Once the cells attached, the FDA approved drug library was added to each well to a final concentration of 20 μg/ml in duplicate. After incubation for 48 hours, the cell viability was determined by a luminescence assay. […] After 16 hours, 1 μl of a […] drug solution was individually added to the 96 wells, resulting in a 20 μg/ml final concentration for most compounds. After 48 hours, CellTiter-Glo® Reagent (G8233, Promega) was added and the luminescence signal was measured with an automated plate reader. The raw data for each well was background-corrected by DMSO control wells on the same plate.
Freshly sorted CD133 (+) Huh7 or mouse TICs were plated in 100 μl of medium containing 5000 cells per well in a 96-well plate. After 16 hours, 0.5 μl of a 2 μg/ml, 1 μg/ml, 0.2 μg/ml, 0.1 μg/ml, 0.02 μg/ml, or 0.01 μg/ml compound was added to each well in triplicate, resulting in a 10 μg/ml, 5 μg/ml, 1 μg/ml, 0.5 μg/ml, 0.1 μg/ml, and 0.05 μg/ml final concentration for most compounds, respectively. After 48 hours, the cells were either measured for cell viability by Cell-Glo® Reagent (Promega), or fixed with 1% PFA (paraformaldehyde) and stained with DAPI for high-throughput screening.

[5] = as above; assay type: cell-based; settings: human, CD133 (−) Huh7 cells (freshly MACS-sorted)
Method: as §1

TICs [6] = settings: cited from earlier work
hepatocytes = assay: Cytochrome c release, immunoblot of cytosol and heavy membrane fractions; assay type: cell-based; settings: within 1-3 hours post treatment
TICs [7] = assay: Stable-isotope glutaminolysis analysis; assay type: cell-based
Method: To test the glutamine utilization, TICs were incubated in 1 mM of [U-^13C5, 2,5-^15N2]-glutamine (Cambridge Isotope Laboratory, Cat # CNLM-1275-H-PK) for 4 hr. When [U-^13C5, 2,5-^15N2]-glutamine is taken up by cells, it loses the ^15N on the 5th carbon and is converted to [U-^13C5, 2-^15N]-glutamate, which loses the ^15N on the 2nd carbon and becomes [U-^13C5]-glutamate after rapid equilibration with TCA cycle intermediate α-ketoglutarate. When glutamine and glutamate were analyzed by gas chromatography mass spectrometry (GC-MS) using electronic impact ionization (EI), their TFA derivatives gave rise to C2-C4 (m/z 152) and C2-C5 (m/z 198) fragments. Thus, the [U-^13C5, 2-^15N]-glutamate has a C2-C4 fragment of m/z 156 (M4; contains 3×^13C and a ^15N) and a C2-C5 fragment of […] (M5; contains 4×^13C and a ^15N), which represent the relative abundance of glutamine taken up by the TICs. On the other hand, [U-^13C5]-glutamate has a C2-C4 fragment of m/z 155 (M3; contains 3×^13C) and a C2-C5 fragment of […] (M4; contains 4×^13C). When the [U-^13C5]-glutamate enters TCA cycle metabolism, it will gradually lose the ^13C carbon after each cycle and generate M2, M1, and M0 C2-C4 fragment and M3, M2, M1, and M0 C2-C5 fragment, which represent the TCA cycle activity. […]

## O=CC[C@@H](O)[C@H](O)[C@H](O)CO [2-DG, 2-deoxyglucose]
TICs [1]
  ATP production: did not significantly lower ATP production
TICs [2]
  FCCP-induced OCR: not

## CCOC(=O)[C@@]1(CCCCCCOc2ccc(Cl)cc2)CO1 [ETO, Etomoxir]
TICs [1]
  ATP production: reduced ATP production
TICs [2]
  FCCP-induced OCR: antagonized
TICs [2]; sh-Nanog-TICs
  ECAR: inhibits
TICs [2]; sh-Scr-TICs
  ECAR: does not affect
Mouse TICs
  xenograft tumor growth / sorafenib resistance: sensitized TICs to sorafenib
TICs [3]; in response to sorafenib treatment
  cytochrome c release from mitochondria: enhanced

## C[n+]1ccc(-c2cc[n+](C)cc2)cc1 [Paraquat]
TICs [4]
  ROS production: increased ROS production
  tumor spheroid formation of TICs: significantly reduced

## COc1cc(C)c(/C=C/C(C)=C/C=C/C(C)=C/C(=O)O)c(C)c1C [acitretin]
CD133 (+) Huh7 cells; 20 μg/ml, 48 hours
  viability at 20 µg/mL: 12%
CD133 (+) Huh7 cells; CD133 killing effect, FIG. 44A
  IC50: 7.37 µg/mL and 22.6 µM
[5]
  viability at 48 h, 20 μg/ml: 70.4%

## CNC(=O)c1cc(Oc2ccc(NC(=O)Nc3ccc(Cl)c(C(F)(F)F)c3)cc2)ccn1 [sorafenib]
TICs [6]; sorafenib combined with knockdown of YAP1 (Chen et al., 2013)
  tumor size reduction: ~55%
TICs [6]; sorafenib with antagonism of NANOG in TICs, tumor-bearing mice (Huynh et al., 2009)
  suppression of tumor growth: ~90%
Mouse TICs
  xenograft tumor growth / sorafenib resistance: very resistant
hepatocytes
  cytochrome c localisation following sorafenib treatment: translocated from mitochondria into the soluble fraction
TICs [3]; TICs
  cytochrome c localisation following sorafenib treatment: remained mostly in the heavy membrane (HM) fraction

## C=CC(N)CCC(=O)O (stereo not shown) [vigabatrin]
TICs [7]
  percentage of labeled succinate: does not reduce
